Data on 35 molecules can be found in patent US9969749B2, “Inhibitors of IRAK4 activity” (MERCK SHARP & DOHME CORP., priority 2014, dated 2018).

Broadly, the IC50 is the concentration needed to halve the response being measured. Lower therefore signals inhibition by little substance.

Sequence of IRAK4 (Q9NWZ3 whole entry): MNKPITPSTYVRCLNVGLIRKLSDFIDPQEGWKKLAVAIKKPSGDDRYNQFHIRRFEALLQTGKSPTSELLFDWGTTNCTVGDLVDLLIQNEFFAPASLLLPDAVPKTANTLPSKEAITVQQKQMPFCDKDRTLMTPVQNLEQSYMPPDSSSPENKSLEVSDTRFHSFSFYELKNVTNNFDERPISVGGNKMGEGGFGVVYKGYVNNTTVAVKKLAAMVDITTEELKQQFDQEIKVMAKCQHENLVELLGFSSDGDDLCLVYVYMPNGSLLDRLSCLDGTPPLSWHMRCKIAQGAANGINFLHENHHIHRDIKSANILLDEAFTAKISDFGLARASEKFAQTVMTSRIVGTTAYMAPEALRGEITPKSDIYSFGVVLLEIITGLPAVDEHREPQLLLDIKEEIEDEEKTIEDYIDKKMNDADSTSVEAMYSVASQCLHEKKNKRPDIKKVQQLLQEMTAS

This assay deals with IRAK4 (Homo sapiens (Human), UniProt Q9NWZ3). As to the kind of experiment: IRAK4 Kinase Assay (IMAP fluorescence polarization). It counts as biochemical. The conditions noted are these: 0.5 nM GST tagged IRAK4, 100 μM ATP, 100 nM fluorescent peptide substrate RP7030, 30 minutes at 25° C. In a few lines:
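GST-tagged IRAK4 (0.5 nM) phosphorylates 100 nM fluorescent peptide with 100 μM ATP in 10 mM Tris pH 7.2, 1 mM MgCl2, 1 mM DTT, 0.01% Tween 20 for 30 min at 25 °C. Phosphorylation read as IMAP nanoparticle-binding fluorescence polarization after stop reagent.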
For orientation: Fluorescence polarisation rises when a labelled molecule tumbles more slowly, as on binding a larger partner.
In turn, `CS(=O)(=O)N1CCN([C@H]2CC[C@H](Nc3ncnc4ccc(-c5cnc(F)c(O)c5)cc34)CC2)CC1` [Example 5-14, 2-fluoro-5-[4-({trans-4-[4-(methylsulfonyl)piperazin-1-yl]cyclohexyl}amino)quinazolin-6-yl]pyridin-3-ol] registered an IC50 of 1 nM.

The molecule `CN1CCN([C@H]2CC[C@H](Nc3ncnc4ccc(-c5cncc(O)c5)cc34)CC2)CC1` [Example 5-5, 5-(4-{[trans-4-(4-methylpiperazin-1-yl)cyclohexyl]amino}quinazolin-6-yl)pyridin-3-ol] displayed an IC50 of 1 nM.

With `c1nc(N[C@H]2CC[C@H](N3CCOCC3)CC2)c2cc(-c3cnc4c(c3)NCC4)ccc2n1` [Example 2-16, 6-(2,3-dihydro-1H-pyrrolo[3,2-b]pyridin-6-yl)-N-[trans-4-(morpholin-4-yl)cyclohexyl]quinazolin-4-amine], the IC50 was 48 nM. Against the preceding molecule, the IC50 is about 48-fold higher.

Consider `C[C@H]1CN([C@H]2CC[C@H](Nc3ncnc4ccc(-c5cnc(F)c(N)c5)cc34)CC2)CCO1` [Example 5-25, 6-(5-amino-6-fluoropyridin-3-yl)-N-{trans-4-[(2S)-2-methylmorpholin-4-yl]cyclohexyl}quinazolin-4-amine], for which inhibition was half-maximal at 1 nM (IC50).

With `Oc1cncc(-c2ccc3ncnc(N[C@H]4CC[C@H](N5CCC(F)CC5)CC4)c3c2)c1` [Example 5-18, 5-(4-{[trans-4-(4-fluoropiperidin-1-yl)cyclohexyl]amino}quinazolin-6-yl)pyridin-3-ol], the IC50 was under 0.5 nM.

Molecule `CN(C)[C@H]1CC[C@H](Nc2ncnc3ccc(-c4ccc(O)nc4)cc23)CC1` [Example 1-28, 5-(4-{[trans-4-(dimethylamino)cyclohexyl]amino}quinazolin-6-yl)pyridin-2-ol] came in with an IC50 of 7 nM. In other words, the single-digit nanomolar range.

`Cc1nc(-c2ccc3ncnc(N[C@H]4CC[C@H](N5CCOCC5)CC4)c3c2)cs1` [Example 2-2, 6-(2-methyl-1,3-thiazol-4-yl)-N-(trans-4-morpholin-4-ylcyclohexyl)quinazolin-4-amine] yielded an IC50 of 92 nM.

On to `Oc1cc(F)cc(-c2ccc3ncnc(N[C@H]4CC[C@H](N5CCOCC5)CC4)c3c2)c1` [Example 1-66, 3-fluoro-5-{4-[(trans-4-morpholin-4-ylcyclohexyl)amino]quinazolin-6-yl}phenol], for which the IC50 is 5 nM.

`CN(C)C1CCC(Nc2ncnc3ccc(-c4ccc(N)nc4)cc23)CC1` (stereo not drawn) [Example 1-11, cis or trans-N′-[6-(6-aminopyridin-3-yl)quinazolin-4-yl]-N,N-dimethylcyclohexane-1,4-diamine] had an IC50 of 36 nM. This IC50 is about 7.2-fold higher than that of the molecule before.

Take `CN(C)[C@H]1CC[C@H](Nc2ncnc3ccc(-c4cccnc4C#N)cc23)CC1` [Example 1-39, 3-(4-{[trans-4-(dimethylamino)cyclohexyl]amino}quinazolin-6-yl)pyridine-2-carbonitrile]: inhibition was half-maximal at 43 nM (IC50).

For `c1nc(N[C@H]2CC[C@H](N3CCOCC3)CC2)c2cc(-c3cc[nH]n3)ccc2n1` [Example 1-91, N-[trans-4-(morpholin-4-yl)cyclohexyl]-6-(1H-pyrazol-3-yl)quinazolin-4-amine], the IC50 was found to be 20 nM.

Turning to `Cc1c[nH]c(-c2ccc3ncnc(N[C@H]4CC[C@H](N5CCOCC5)CC4)c3c2)n1` [Example 2-22, 6-(4-methyl-1H-imidazol-2-yl)-N-[trans-4-(morpholin-4-yl)cyclohexyl]quinazolin-4-amine], the IC50 came out at 492 nM. This IC50 is about 25-fold higher than that of the molecule before.

`Cc1c(-c2cnn(C)c2)ccc2ncnc(N[C@H]3CC[C@H](N4CCOCC4)CC3)c12` [Example 1-77, 5-methyl-6-(1-methyl-1H-pyrazol-4-yl)-N-(trans-4-morpholin-4-ylcyclohexyl)quinazolin-4-amine] had an IC50 of 1310 nM.

Turning to `N#Cc1cncc(-c2ccc3ncnc(N[C@H]4CC[C@H](N5CCOCC5)CC4)c3c2)c1` [Example 1-98, 5-(4-{[trans-4-(morpholin-4-yl)cyclohexyl]amino}quinazolin-6-yl)pyridine-3-carbonitrile], inhibition was half-maximal at 21 nM (IC50).

As to `c1nc(N[C@H]2CC[C@H](N3CCOCC3)CC2)c2cc(-c3cnoc3)ccc2n1` [Example 1-96, 6-(isoxazol-4-yl)-N-[trans-4-(morpholin-4-yl)cyclohexyl]quinazolin-4-amine], the midpoint of inhibition, the IC50, lay at 9 nM. Against the preceding molecule, the IC50 is about 2.3-fold lower.

As for `Cn1ccnc1-c1ccc2ncnc(N[C@H]3CC[C@H](N4CCOCC4)CC3)c2c1` [Example 2-26, 6-(1-methyl-1H-imidazol-2-yl)-N-[trans-4-(morpholin-4-yl)cyclohexyl]quinazolin-4-amine], the IC50 is 562 nM.

In turn, `Fc1cc2ncnc(N[C@H]3CC[C@H](N4CCOCC4)CC3)c2cc1-c1cn[nH]c1` [Example 1-80, 7-fluoro-N-(trans-4-morpholin-4-ylcyclohexyl)-6-(1H-pyrazol-4-yl)quinazolin-4-amine] yielded an IC50 of 2 nM.

As to `Cc1c(-c2ccc3ncnc(N[C@H]4CC[C@H](N5CCOCC5)CC4)c3c2)cnn1C` [Example 2-21, 6-(1,5-dimethyl-1H-pyrazol-4-yl)-N-[trans-4-(morpholin-4-yl)cyclohexyl]quinazolin-4-amine], the IC50 amounted to 126 nM.

`Nc1cccc(-c2ccc3ncnc(N[C@H]4CC[C@H](N5CCOCC5)CC4)c3c2)c1` [Example 1-83, 6-(3-aminophenyl)-N-(trans-4-morpholin-4-ylcyclohexyl)quinazolin-4-amine] returned an IC50 of 9 nM.

Regarding `Nc1cc(-c2ccc3ncnc(N[C@H]4CC[C@H](N5CCO[C@@H](CF)C5)CC4)c3c2)cnc1F` [Example 5-22, 6-(5-amino-6-fluoropyridin-3-yl)-N-{trans-4-[(2R)-2-(fluoromethyl)morpholin-4-yl]cyclohexyl}quinazolin-4-amine], half-maximal inhibition (IC50) required 4 nM.

With `Nc1cncc(-c2cc3c(N[C@H]4CC[C@H](N5CCOCC5)CC4)ncnc3cc2F)c1` [Example 1-85, 6-(5-aminopyridin-3-yl)-7-fluoro-N-(trans-4-morpholin-4-ylcyclohexyl)quinazolin-4-amine], the IC50 is 10 nM.

`COc1ncc(-c2ccc3ncnc(N[C@H]4CC[C@H](N5CCOCC5)CC4)c3c2)cc1N` [Example 1-71, 6-(5-amino-6-methoxypyridin-3-yl)-N-(trans-4-morpholin-4-ylcyclohexyl)quinazolin-4-amine] gave an IC50 of 17 nM.

Molecule `CN(C)[C@H]1CC[C@H](Nc2ncnc3ccc(-c4cc(O)c(F)c(F)c4)cc23)CC1` [Example 1-64, 5-(4-{[trans-4-(dimethylamino)cyclohexyl]amino}quinazolin-6-yl)-2,3-difluorophenol] had an IC50 of 4 nM.

Molecule `Cn1cnc2cc(-c3ccc4ncnc(N[C@H]5CC[C@H](N(C)C)CC5)c4c3)cnc21` [Example 1-60, trans-N,N-dimethyl-N′-[6-(3-methyl-3H-imidazo[4,5-b]pyridin-6-yl)quinazolin-4-yl]cyclohexane-1,4-diamine] registered a half-inhibitory concentration (IC50) of 1690 nM.

The molecule `CN(C)[C@H]1CC[C@H](Nc2ncnc3ccc(-c4cccc(C#N)c4)cc23)CC1` [Example 1-44, 3-(4-{[trans-4-(dimethylamino)cyclohexyl]amino}quinazolin-6-yl)benzonitrile] had an IC50 of 32 nM. This IC50 is about 53-fold lower than that of the molecule before.

Consider `Nc1cc(-c2ccc3ncnc(N[C@H]4CC[C@H](N5CCOCC5)CC4)c3c2)ccn1` [Example 1-74, 6-(2-aminopyridin-4-yl)-N-(trans-4-morpholin-4-ylcyclohexyl)quinazolin-4-amine], for which the 50% inhibitory concentration (IC50) was found to be 3 nM.

Regarding `CCOC(=O)c1cn(C)nc1-c1ccc2ncnc(N[C@H]3CC[C@H](N4CCOCC4)CC3)c2c1` [Example 2-1, Ethyl 1-methyl-3-(4-(((trans)-4-morpholinocyclohexyl)amino)quinazolin-6-yl)-1H-pyrazole-4-carboxylate], the IC50 turned out to be 6030 nM. This IC50 lies about 2000-fold higher than the previous one.

The molecule `CNc1cncc(-c2ccc3ncnc(N[C@H]4CC[C@H](N5CCC[C@H](CN6CCOCC6)C5)CC4)c3c2)c1` [Example 5-11, 6-[5-(methylamino)pyridin-3-yl]-N-{trans-4-[(3R)-3-(morpholin-4-ylmethyl)piperidin-1-yl]cyclohexyl}quinazolin-4-amine] gave an IC50 of 2 nM. This IC50 lies about 3000-fold lower than the previous one.

In the case of `Cc1cn(C)c(-c2ccc3ncnc(N[C@H]4CC[C@H](N5CCOCC5)CC4)c3c2)n1` [Example 2-23, 6-(1,4-dimethyl-1H-imidazol-2-yl)-N-[trans-4-(morpholin-4-yl)cyclohexyl]quinazolin-4-amine], it took 1190 nM to reach half-maximal inhibition (IC50).

In turn, `Cc1ccc(-c2ccc3ncnc(N[C@H]4CC[C@H](N(C)C)CC4)c3c2)cn1` [Example 1-30, trans-N,N-dimethyl-N′-[6-(6-methylpyridin-3-yl)quinazolin-4-yl]cyclohexane-1,4-diamine] gave an IC50 of 42 nM.

Regarding `CS(=O)(=O)Nc1cncc(-c2ccc3ncnc(N[C@H]4CC[C@H](N5CCOCC5)CC4)c3c2)c1` [Example 1-92, N-[5-(4-{[trans-4-(morpholin-4-yl)cyclohexyl]amino}quinazolin-6-yl)pyridin-3-yl]methanesulfonamide], the IC50 was found to be 24 nM.

In the case of `Nc1cc(-c2ccc3ncnc(N[C@H]4CC[C@H](N5CCC(F)(F)CC5)CC4)c3c2)cnc1F` [Example 5-15, 6-(5-amino-6-fluoropyridin-3-yl)-N-[trans-4-(4,4-difluoropiperidin-1-yl)cyclohexyl]quinazolin-4-amine], the IC50 stood at 2 nM.

With `CN(C)C1CCC(Nc2ncnc3ccc(-c4ccccc4)cc23)CC1` (single isomer, unassigned) [Example 1-2, cis or trans-N,N-dimethyl-N′-(6-phenylquinazolin-4-yl)cyclohexane-1,4-diamine], half-maximal inhibition (IC50) required 3160 nM. Compared with the last molecule, the IC50 is about 1600-fold higher.

`CN(C)[C@H]1CC[C@H](Nc2ncnc3ccc(-c4cnn(CCN5CCOCC5)c4)cc23)CC1` [Example 1-15, trans-N,N-dimethyl-N′-(6-{1-[2-(morpholin-4-yl)ethyl]-1H-pyrazol-4-yl}quinazolin-4-yl)cyclohexane-1,4-diamine] had an IC50 of 1320 nM. This IC50 is about 2.4-fold lower than that of the molecule before.

In turn, `C[C@@H]1CN([C@H]2CC[C@H](Nc3ncnc4ccc(-c5cncc(O)c5)cc34)CC2)C[C@H](C)O1` [Example 5-6, 5-[4-({trans-4-[(2R,6S)-2,6-dimethylmorpholin-4-yl]cyclohexyl}amino)quinazolin-6-yl]pyridin-3-ol] had an IC50 of under 0.5 nM.
